Columns and labels:
IL-8 from CFTE cells = experiment: Hypersecretion of IL-8 from CFTE cells; conditions: qualitative
cat [1] = experiment: LD50, intravenous administration to the cat (Merck Index)
cat [2] = conditions: intravenous administration, Merck Index; cited from earlier work
NFκB = conditions: 1 μM concentration; variety of cultured cancer cells; cited from earlier work

Row | SMILES | hypersecretion of IL-8 from CFTE cells (IL-8 from CFTE cells) | solubility (Solubility in ethanol) | LD-50-defined toxicity (concentration) (cat [1]; as restated) | concentration corresponding to LD50 (cat [1]; assuming body weight is all water and uniform distribution) | LD50 (cat [2]) | TNFα-dependent activation of NFκB (NFκB)
1 | CCCn1c(=O)c2[nH]c(C3CCCC3)nc2n(CCC)c1=O [CPX, 1,3-Dipropyl-8-Cyclopentyl xanthine] | suppressed |  |  |  |  | 
2 | CO[C@H]1C[C@H](O[C@H]2CC[C@@]3(C)[C@H](CC[C@@H]4[C@@H]3CC[C@]3(C)[C@@H](C5=CC(=O)OC5)[C@@H](OC(C)=O)C[C@]43O)C2)O[C@@H](C)[C@@H]1O [Compound I] |  | soluble in ethanol | ≥ 0.6 µM | 0.6 µM | 0.3 mg/kg | suppresses

Reference: patent US20060234955A1, “Cardiac glycosides to treat cystic fibrosis and other il-8 dependent disorders” (priority 2002, published 2006)
